# Data reported in patent publication US20150051231A1, “SYNERGISTIC COMBINATIONS OF TRIAZOLES, STROBILURINS AND BENZIMIDAZOLES, USES, FORMULATIONS, PRODUCTION PROCESSES AND APPLICATIONS USING THE SAME” (FMC Quimica do Brasil Ltda., priority 2010, published 2015).
# Like-named read-outs stand apart in the source and are kept apart here.
# Key:
# Assay type in all cases: in vivo
# Colletotrichum truncatum = assay: Anthracnose severity in soybean 14 days after the third application (Table 5), Rondonópolis-MT; settings: for Severity (%) C. truncatum: 14 days after the third application; for control of anthracnose (C. truncatum) in soybean crops, in words: isolated use, PrioriXtra under conditions of high disease severity
# Source text: (§1) In addition to these benefits, the association of the three fungicides—tebuconazole, carbendazim and azoxystrobin or tebuconazole, carbendazim and kresoxim-methyl provides greater safety regarding protection against the emergence of fungi resistant to fungicides and improved control spectrum.
# Corynespora cassiicola = assay: Target spot severity in soybean 14 days after the third application (Table 5), Rondonópolis-MT; settings: for Severity (%) C. cassiicola: 14 days after the third application; for control of target spot (C. cassiicola) in soybean crops, in words: isolated use, PrioriXtra under conditions of high disease severity
# Source text: as §1
# [1] = system: Phakopsora pachyrhizi Sydow; assay: Field trial, interactions of fungicides for control of Asian soybean rust, flutriafol series (Tables 2 and 4), Rondonópolis-MT; settings: for Control (%) Lower canopy, obtained by AUDPC / Control (%) Upper canopy, obtained by AUDPC: rates g/há ai: Kresoxim-methyl 125, Azoxystrobin 30, Flutriafol 62.5, Flut+Carb+Kresoxim 62.5 + 200 + 125, Flut+Carb+Azoxystrobin 62.5 + 200 + 30, Flut+Carb 62.5 + 200
# Procedure: (§2) A study was prepared to analyze the interaction effect using the multiplicative model of distribution proposed by Colby (1967), using Equation 1 below to calculate the expected response: […]
# (§3) wherein E is the expected reduction in disease development (such as the reduction in the percentage of expected control or the reduction in the area under the disease-progress curve), and x and y represent the reduction in disease development achieved by treatment with fungicide x and y, respectively.
# Regarding the study of the interaction effect for the association of flutriafol+carbendazim+azoxystrobin and flutriafol+carbendazim+kresoxim-methyl, the model proposed by Colby was used.
# [2] = system: Phakopsora pachyrhizi Sydow; settings: three preventive applications from V9
# Procedure: This study was conducted to evaluate the efficacy of the products in the control of Asian rust. The start of preventive applications in V9, the second application was made 20 days after the first (in R4) and the third application was made 15 days after the second. Emulsifiable mineral oil Assist was added, at the dose of 0.5% v/v in all treatments, except for the PrioriXtra treatments, in which 0.5% v/v Nimbus was added, and Fox, in which Aureo was added at the dose of 0.4 L/ha.
# [3] = system: Phakopsora pachyrhizi Sydow; assay: Field trial, interactions of fungicides for control of Asian soybean rust, tebuconazole series (Tables 1 and 3), Rondonópolis-MT; settings: for control of rust (Phakopsora pachyrhizi Sydow) in soybean crops, in words: isolated use; for Control (%) Lower canopy, obtained by AUDPC / Control (%) Upper canopy, obtained by AUDPC: rates g/ha ai: Kresoxim-methyl 125, Azoxystrobin 30, Tebuconazole 100, Teb+Carb+Kresoxim 100 + 200 + 125, Teb+Carb+Azoxystrobin 100 + 200 + 30, Teb+Carb 100 + 200
# Source text: (See Table 1 below), carbendazim even at a dose of 250 g/ha ai, and tebuconazole at the dose of 100 g/ha ai.
# The association of azoxystrobin with the tebuconazole+carbendazim mixture (BF 488) provided a control efficacy gain and a residual control effect even under high pressure of Asian rust. […] The addition of azoxystrobin from 6 g/ha ai in the mixture of tebuconazole+carbendazim (100+200 g/ha ai, respectively) has already reflected in rust efficacy gain, providing control similar to the efficacy standard of azoxystrobin+cyproconazole (60+24 g/ha ai, respectively), and this product is marketed by Syngenta as PrioriXtra®. The addition of azoxystrobin in doses of 18, 24 and 30 g/ha ai together with tebuconazole+carbendazim was effective for obtaining yields higher than the market standard containing 60 g/ha of azoxystrobin.
# The association of kresoxim-methyl with the tebuconazole+carbendazim mixture (BF 452) provided a control efficacy gain and a residual control effect even under high pressure of Asian rust. […] The addition of kresoxim-methyl from 75 g/ha ai in the mixture of tebuconazole+carbendazim (100+200 g/ha ai, respectively) has already reflected in rust efficacy gain, providing control similar to the efficacy standard of azoxystrobin+cyproconazole (60+24 g/ha ai, respectively), and this product is marketed by Syngenta as PrioriXtra®.
# as §2, §3
# The possible interaction responses are: • a) antagonism, which is characterized by joint action of two fungicides showing the response of a test organism in their combination that is lower than the expected response, obtained by appropriate reference models, as proposed by Colby (1967); • b) synergism, which is the cooperative action of two fungicides showing a response in the test organism on the joint application that is higher than the expected response obtained by appropriate reference models, and • c) additive, which occurs when two fungicides react by presenting a response in the test organism on the joint application that is equal to the expected response obtained by appropriate reference models.
# To use the model proposed by Colby, the association tebuconazole+carbendazim (100+200, respectively) was established for a comparative test with azoxystrobin or kresoxim-methyl and a response of the type of interaction (see Table 3 below).
# [4] = system: Phakopsora pachyrhizi Sydow; settings: three preventive applications from R1
# Procedure: This study was conducted to evaluate the efficacy of the products in the control of Asian soybean rust (Favorita). Preventive applications started in R1, the second application was made 19 days after the first (in R4) and the third application was made 15 days after the second (in R5.3). Emulsifiable mineral oil Assist was added at the dose of 0.5% v/v in all treatments, except for the PrioriXtra treatments, in which 0.5% v/v Nimbus was added. […] The efficacy of BF 452 and BF 465 is consistent, reducing the disease throughout the soybean plant canopy.
# [5] = system: Phakopsora pachyrhizi Sydow; settings: three preventive applications from R1; remark: listed apart in the source
# Procedure: This study was conducted to evaluate the efficacy of the products in the control of Asian soybean rust (Valiosa). Preventive applications started in R1, the second application was made 19 days after the first (in R5.1) and the third application was made 15 days after the second (in R5.5). Emulsifiable mineral oil Assist was added at the dose of 0.5% v/v in all treatments, except for the PrioriXtra treatments, in which 0.5% v/v Nimbus was added.
# [6] = system: Phakopsora pachyrhizi Sydow; settings: three preventive applications from R1; remark: listed apart in the source
# Procedure: This study was conducted to evaluate the efficacy of the products in the control of Asian soybean rust. Preventive applications started in R1, with the second application occurring 20 days after the first application and the third application 15 days after the second. Emulsifiable mineral oil Assist was added, at the dose of 0.5% v/v in all treatments, except for the PrioriXtra treatments, in which 0.5% v/v Nimbus was added, and Fox, in which Aureo was added at the dose of 0.4 L/ha.
# [7] = system: Phakopsora pachyrhizi Sydow; assay: Field trial, soybean rust AUDPC and yield (Table 6), Rondonópolis-MT
# Source text: (§4) The association of azoxystrobin with the tebuconazole+carbendazim mixture provided high control efficacy of rust (see Table 6 below). […] The association of the three fungicides tebuconazole, carbendazim and azoxystrobin provides effective control of target spot (Corynespora cassiicola) and anthracnose (Colletotrichum truncatum) (see Table 5 above), and contains fungicides with three modes of action—carbendazim (benzimidazole)—acting on the integrity of tubulin; tebuconazole (triazole)—sterol synthesis inhibitors; azoxystrobin (strobilurin)—inhibits mitochondrial respiration.
# as §4, with “of kresoxim-methyl” for “of azoxystrobin”, “6 above).” for “6 below).”, “and kresoxim-methyl” for “and azoxystrobin”, “[…] (strobilurin)-inhibits” for “azoxystrobin (strobilurin)—inhibits”
structure (smiles),measurement,setting,value
"OC(Cn1cncn1)(c1ccc(F)cc1)c1ccccc1F (racemic) [flutriafol, (RS)-2,4′-difluoro-α-(1H-1,2,4-triazol-1-ylmethyl)benzhydryl alcohol]",Severity (%) C. truncatum,Colletotrichum truncatum; rate 62.5 g/ha a.i.,31.3%
same,"control of anthracnose (C. truncatum) in soybean crops, in words",Colletotrichum truncatum,not effective
same,Severity (%) C. cassiicola,Corynespora cassiicola; rate 62.5 g/ha a.i.,22.5%
same,"control of target spot (C. cassiicola) in soybean crops, in words",Corynespora cassiicola,not effective
same,"control of rust (Phakopsora pachyrhizi Sydow) in soybean crops, in words",[1]; isolated use,not effective in controlling rust
same,AUPDC* Lower Canopy,[1]; rate 62.5 g/ha a.i.,1312.6
same,AUPDC* Upper Canopy,[1]; rate 62.5 g/ha a.i.,1097.2
same,Productivity,[1]; rate 62.5 g/ha a.i.,1578.2 kg/ha
same,"Control (%) Lower canopy, obtained by AUDPC",[1],24.0%
same,"Control (%) Upper canopy, obtained by AUDPC",[1],26.5%
"CC(C)(C)C(O)(CCc1ccc(Cl)cc1)Cn1cncn1 (racemic) [tebuconazole, (RS)-1-p-chlorophenyl-4,4-dimethyl-3-(1H-1,2,4-triazol-1-ylmethyl)pentan-3-ol]","efficacy in controlling soybean rust, in words",[2],not effective in controlling soybean rust
same,Severity (%) C. truncatum,Colletotrichum truncatum; rate 100 g/ha a.i.,30.0%
same,"control of anthracnose (C. truncatum) in soybean crops, in words",Colletotrichum truncatum,not effective
same,Severity (%) C. cassiicola,Corynespora cassiicola; rate 100 g/ha a.i.,23.5%
same,"control of target spot (C. cassiicola) in soybean crops, in words",Corynespora cassiicola,not effective
same,"control of rust (Phakopsora pachyrhizi Sydow) in soybean crops, in words",[3],not effective in controlling rust
same,AUPDC* Lower Canopy,[3]; rate 100 g/ha a.i.,896.0
same,AUPDC* Upper Canopy,[3]; rate 100 g/ha a.i.,427.0
same,Productivity,[3]; rate 100 g/ha a.i.,2152.0 kg/ha
same,"Control (%) Lower canopy, obtained by AUDPC",[3],32%
same,"Control (%) Upper canopy, obtained by AUDPC",[3],71%
same,"efficacy in controlling soybean rust, in words",[4],not effective in controlling soybean rust
same,"efficacy in controlling soybean rust, in words",[5],not effective in controlling soybean rust
same,"efficacy in controlling soybean rust, in words",[6],not effective in controlling soybean rust
same,AUPDC* Lower Canopy,[7]; rate 100 g/ha a.i.,747.4
same,AUPDC* Upper Canopy,[7]; rate 100 g/ha a.i.,227.5
same,Productivity,[7]; rate 100 g/ha a.i.,2570.8 kg/ha
COC(=O)Nc1nc2ccccc2[nH]1 [carbendazim],"control of rust (Phakopsora pachyrhizi Sydow) in soybean crops, in words",[3],not effective in controlling rust
same,AUPDC* Lower Canopy,[3]; rate 250 g/ha a.i.,261.0
same,AUPDC* Upper Canopy,[3]; rate 250 g/ha a.i.,1148.0
same,Productivity,[3]; rate 250 g/ha a.i.,1324.0 kg/ha
same,AUPDC* Lower Canopy,[1]; rate 250 g/ha a.i.,1576.3
same,AUPDC* Upper Canopy,[1]; rate 250 g/ha a.i.,1317.0
same,Productivity,[1]; rate 250 g/ha a.i.,1293.0 kg/ha
same,AUPDC* Lower Canopy,[7]; rate 250 g/ha a.i.,361.8
same,AUPDC* Upper Canopy,[7]; rate 250 g/ha a.i.,247.5
same,Productivity,[7]; rate 250 g/ha a.i.,1323.7 kg/ha
"CO/N=C(/C(=O)OC)c1ccccc1COc1ccccc1C [kresoxim-methyl, methyl(E)-methoxyimino[α-(o-tolyloxy)-o-tolyl]acetate]",Severity (%) C. truncatum,Colletotrichum truncatum; rate 125 g/ha a.i.,19.5%
same,"control of anthracnose (C. truncatum) in soybean crops, in words",Colletotrichum truncatum,not effective
same,Severity (%) C. cassiicola,Corynespora cassiicola; rate 125 g/ha a.i.,22.3%
same,"control of target spot (C. cassiicola) in soybean crops, in words",Corynespora cassiicola,not effective
same,"control of rust (Phakopsora pachyrhizi Sydow) in soybean crops, in words",[3],not effective in controlling rust
same,AUPDC* Lower Canopy,[3]; rate 125 g/ha a.i.,1146.0
same,AUPDC* Upper Canopy,[3]; rate 125 g/ha a.i.,978.0
same,Productivity,[3]; rate 125 g/ha a.i.,1349.0 kg/ha
same,"Control (%) Lower canopy, obtained by AUDPC",[3],13%
same,"Control (%) Upper canopy, obtained by AUDPC",[3],34%
same,AUPDC* Lower Canopy,[1]; rate 125 g/ha a.i.,1415.8
same,AUPDC* Upper Canopy,[1]; rate 125 g/ha a.i.,1261.3
same,Productivity,[1]; rate 125 g/ha a.i.,1479.5 kg/ha
same,"Control (%) Lower canopy, obtained by AUDPC",[1],18.0%
same,"Control (%) Upper canopy, obtained by AUDPC",[1],15.5%
same,AUPDC* Lower Canopy,[7]; rate 125 g/ha a.i.,1245.9
same,AUPDC* Upper Canopy,[7]; rate 125 g/ha a.i.,1074.1
same,Productivity,[7]; rate 125 g/ha a.i.,1848.5 kg/ha
